According to publication PMC10609854 (Pharmaceuticals, 2023):

Key:
[1] = tested on: histamine-induced pruritus; test: histamine-induced pruritus; format: in vivo; settings: mice
Description: The area (around 2 cm^2) of the nape of mice was shaved at least 2 days prior to experiments. On the day of the experiment, each mouse was individually placed in plastic chambers (15 × 15 × 30 cm). After the 30 min period of habituation, the mice received an intradermal (i.d.) injection of histamine dihydrochloride (10 µmol/site), chloroquine (CQ, 200 µg/site), or SLIGRL-NH2 (40 nmol/site), which were dissolved in physiological saline and administrated at the constant volume of 20 μL. Immediately following the injection, scratching (series of movements considered as a single scratching bout usually consisted of three single scratches) of the injected site by the hind paw was counted for 60 min, 30 min, or 45 min after histamine, CQ, and SLIGRL-NH2 injection, respectively.

in vivo = settings: mouse
Description: The compound was administered at a dose of 5 mg/kg i.v. and at two doses (5 and 15 mg/kg) i.p. Before the dose (time 0) and up to 8 h at different time points following compound administration, three to five mice per time point were exsanguinated while under light ketamine/xylazine anesthesia. Blood and brains were harvested to the last measured point, whereas liver, kidneys, and lungs were collected at 0.25, 0.5, and 1 h. Serum and tissues were stored at −80 °C until assayed.
Tissues (liver, kidney, brain, and lung) were homogenized with water in a 1:5 ratio (w/v). Prior to the extraction, 100 μL of the plasma samples or 500 μL of tissue homogenates containing calibrators or authentic samples were spiked with 10 μL of IS working solution in a snap-cap microcentrifuge tubes and vortexed (Reax top, Heidolph, Schwabach, Germany) for 15 s. The serum and tissue samples were then alkalized with, respectively, 20 μL or 50 μL of 4 M sodium hydroxide solution, mixed briefly on the vortex mixer, and extracted with 1 mL of ethyl acetate/hexane (30:70, v/v) mixture by mixing for 20 min on a shaker (VXR Vibrax, IKA, Staufen, Germany). Then samples were centrifuged (EBA 12 R, Hettich, Germany) at 8000 g for 15 min and the organic layer of each sample was transferred to a new snap-cap microcentrifuge tube containing 200 μL of a methanol/0.1 M sulfuric acid mixture (1:9, v/v). Subsequently the samples were vortexed (20 min) and centrifuged again (8000 g, 15 min). Finally, the organic layer was discarded and 10–50 μL of the acidic layer was transferred to the autosampler vials (4 °C).
The HPLC system (LaChrom Elite, Merck Hitachi) consisted of the following components: an L-2130 pump, an L-2200 autosampler with a 100 μL sample loop, an L-2350 oven, and an L-2485 fluorescence detector. Excitation and emission wavelengths were set to 260 nm and 330 nm, respectively. Analysis was performed at a temperature of 25 °C on a 250 mm × 4 mm LiChrospher 100 RP-18 column from Merck Millipore (Germany), filled with 5 μm particles, protected with LiChroCART precolumn (10 μm particle size). The mobile phase containing acetonitrile and 20 mM potassium dihydrogen phosphate buffer (pH 4.5) in a 7:3 (v/v) ratio was filtered through the 0.45 µm membrane filter (Supelco Inc., Mainz, Germany) before use and pumped at a flow rate of 1.5 mL/min. […] The method was validated for serum, brain, liver kidney, and lungs.
Both one- and two-compartment pharmacokinetic models were tested. Bioavailability was estimated as a model parameter (F). […] The maximum concentration (Cmax) and the time to reach peak concentration (tmax) were obtained directly from the concentration–time data. The terminal elimination rate constant (λz) was assessed using linear regression. Terminal half-life (t0.5λz) was calculated as ln2/λz. The area under the concentration–time curve from 0 to last measured point (AUC0–last) was calculated using the linear trapezoidal rule. Non-compartmental and model-dependent analyses were performed using Phoenix WinNonlin version 6.3 (Pharsight Corp., Mountain View, CA, USA). The final pharmacokinetic model was selected on the basis of visual inspection of the fitting, examination of residuals, parameter precision, Akaike Information Criteria, and Schwarz Criteria.

[2] = tested on: OXPT-induced tactile allodynia; test: oxaliplatin-induced neuropathic pain, von Frey test; format: in vivo; settings: mice
Description: Neuropathy was induced by administering a single dose (10 mg/kg) of Oxaliplatin (OXPT) dissolved in a 5% glucose solution (Polfa Kutno, Poland). To assess the response to mechanical stimuli, the von Frey test was carried with application of the electronic von Frey unit (Bioseb, France). The apparatus contained a single flexible filament, which was used to apply increasing force ranging from 0 to 10 g to the plantar surface of the mouse’s hind paw. The crossing of pain threshold led to the paw withdrawal. The mechanical pressure that evoked the nocifensive response was subsequently recorded. The measurement was performed before the OXPT administration and 7 days afterwards. The compounds were administrated to the animals with developed mechanical allodynia observed as a statistically significant decrease in pain threshold. On the day of the experiment, each mouse was placed in an observation chamber with a wire mesh bottom and was allowed to habituate for 1 h. After the habituation period, the mouse pain threshold was tested 3 times alternately with at least a 30 s gap between each measurement. The mean of these three consecutive measurements was taken as a baseline value. The mice with tactile allodynia were i.p. pretreated with the tested compound or their combinations, and 30 min later the animals were tested again according to the same procedure.

[3] = tested on: spontaneous locomotor activity; test: spontaneous locomotor activity; format: in vivo; settings: mice
Description: The mean number of light-beam crossings in the vehicle-treated animals was 1.51 ± 0.13 x 103, measured during the 30 min-long period of observation. The test compound at a dose of 30 mg/kg […]
effect [F(2,21) = 4.43, p < 0.05] (Figure S1).
Figure S1. […] The test compound or vehicle (1% solution of Tween 80) were administered 30 min intraperitoneally (i.p.) before the beginning of the test. The results are presented as bar plots showing the mean ± SEM. Statistical analysis: one-way ANOVA followed by Dunnett’s post hoc test, * p < 0.05, n = 8 mice per group.
time spent on the rotarod apparatus was 60 seconds for each control mouse. The same effect was observed in the E153- treated mice. […]
impaired the motor coordination of mice at any tested speed [F(2,15) = 0.41, p=0.67] (Figure S2). We

**Q.** Which “activity in histamine-induced pruritus” value ([1]; 5 mg/kg i.p.) does the source give for `O=C(O)C(=O)O.c1ccc(-c2ccc(OCCCCCN3CCCCCC3)cc2)cc1` [Compound E153, 1-(5-(4-Phenylphenoxy)pentyl)azepane hydrogen oxalate] here?
**A.** active

**Q.** What about the “scratching behavior, histamine-induced pruritus” value ([1]; i.p. 30 min before i.d. histamine) of the same compound?
**A.** significantly reduced scratching behavior

**Q.** What about the “Vc (volume of the central compartment)” value (in vivo) of the same compound?
**A.** 6.39 L/kg

**Q.** What about the half-life (in vivo) of the same compound?
**A.** 41.6 min

**Q.** What about the “k12 (first-order distribution rate constant)” value (in vivo) of the same compound?
**A.** 0.33 h⁻¹

**Q.** And the “k21 (first-order distribution rate constant)” value (in vivo)?
**A.** 0.19 h⁻¹

**Q.** And the k el (in vivo)?
**A.** 0.000278 s⁻¹

**Q.** And the “time of high (peak) concentrations in brain tissue” value (in vivo)?
**A.** 0.5 to 1 h

**Q.** What about the “k01 (first-order absorption rate constant, ka)” value (in vivo; ip) of the same compound?
**A.** 2.32 h⁻¹

**Q.** What about the Kp (in vivo; ip, 5 mg/kg) of the same compound?
**A.** 28.5

**Q.** What about the “brain t0.5λz” value (in vivo; ip, 5 mg/kg) of the same compound?
**A.** 1.03 h

**Q.** And the Kp (in vivo; ip, 15 mg/kg)?
**A.** 14.7

**Q.** And the “brain Cmax” value (in vivo; ip, 15 mg/kg)?
**A.** 11,682.69 ng/g

**Q.** What about the “brain t0.5λz” value (in vivo; ip, 15 mg/kg) of the same compound?
**A.** 1.46 h

**Q.** And the Kp (in vivo; iv, 5 mg/kg)?
**A.** 15.7

**Q.** And the Tmax (in vivo; iv, 5 mg/kg)?
**A.** 15 min

**Q.** What about the “brain t0.5λz” value (in vivo; iv, 5 mg/kg) of the same compound?
**A.** 0.90 h

**Q.** And the “highest concentration in liver” value (in vivo; iv, 5 mg/kg)?
**A.** 5.32 µg/g

**Q.** And the “highest concentration in lung tissue” value (in vivo; iv, 5 mg/kg)?
**A.** 43.13 µg/g

**Q.** What about the “von Frey paw withdrawal force, % of baseline” value ([2]; 10 mg/kg i.p., early phase (3 h after OXPT), OXPT alone 60.13%) of the same compound?
**A.** 71.5%

**Q.** And the “reversal of the effect of OXPT (von Frey)” value ([2]; 10 mg/kg i.p., late phase (7 days after OXPT))?
**A.** not in late phase

**Q.** And the “von Frey paw withdrawal force, % of baseline” value ([2]; 15 mg/kg i.p., early phase (3 h), OXPT alone 60.5%)?
**A.** 80.0%

**Q.** What about the “von Frey paw withdrawal force, % of baseline” value ([2]; 15 mg/kg i.p., late phase (7 days), OXPT alone 57.4%) of the same compound?
**A.** 79.4%

**Q.** And the “von Frey paw withdrawal force, % of baseline” value ([2]; 30 mg/kg i.p., early phase (3 h), OXPT alone 57.9%)?
**A.** 97.9%

**Q.** And the “von Frey paw withdrawal force, % of baseline” value ([2]; 30 mg/kg i.p., late phase (7 days), OXPT alone 60.6%)?
**A.** 87.9%

**Q.** What about the “spontaneous locomotor activity (light-beam crossings, 30 min)” value ([3]; 15 mg/kg i.p.) of the same compound?
**A.** no effect

**Q.** And the “spontaneous locomotor activity (light-beam crossings, 30 min)” value ([3]; 30 mg/kg i.p.)?
**A.** significantly altered
